Data as given in patent publication US10464941B2, “Therapeutic compounds” (REGENTS OF THE UNIVERSITY OF MINNESOTA, priority 2015, dated 2019).

Key:
[1] = tested on: mice with cisplatin-induced hyperalgesia; test: Cisplatin-induced peripheral neuropathy, mechanical hyperalgesia (von Frey); format: in vivo, C3H/HeJ mice; conditions: cisplatin model
Experimental: Adult male C3H/HeJ mice were tested for mechanical paw withdrawal responses on 2 consecutive days prior to treatment by determining the frequency of hind paw withdrawal evoked by a standard von Frey monofilament with a bending force of 3.9 mN applied to the plantar surface of the hind paws. Mice were then given 1 mg/kg of cisplatin intraperitoneal (i.p.) daily for 7 consecutive days and on day 14 post-injection, mechanical hyperalgesia was assessed. Compounds were administered intrathecally (i.t.) and i.p. weekly to determine peak time effects and ED50/80.

[2] = tested on: control mice; test: Radiant heat tail-flick antinociception, control (LPS-untreated) mice; format: in vivo; conditions: control mice
Source text: Pain is a hallmark of many inflammatory conditions.

[3] = tested on: CFA-induced mechanical hyperalgesia mouse model; test: Complete Freund's Adjuvant (CFA) mechanical hyperalgesia, electronic von Frey; format: in vivo, mice; conditions: i.t.
Experimental: Before injection of CFA baseline withdrawal thresholds (g) were obtained from a mechanical stimulation using an electronic von Frey anesthesiometer (IITC Life Sciences, Woodland Hills, USA) by applying an accurate force on both left and right hind paw. (2,3) The left hindpaws were then injected (intraplantar) with a 50% solution of CFA (10 μg, Sigma-Aldrich) in water while the mice are under isoflurane anesthesia (10). Twenty-four hours later the withdrawal threshold (g) was again measured prior to and after the test compound i.t. at 10, 20, 30 and 60 minutes to determine the peak time and subsequent ED50. % MPE was calculated ((Time-point withdrawal threshold with drug−CFA withdrawal threshold)/(Day 0 withdrawal threshold−CFA withdrawal threshold))*100 (Wade, C. L., et al., PLoS One 2013, 8, e79239/1-e79239/11, 11 pp; Martinov, T., et al., J Vis Exp 2013, e51212; Sorge, R. E., et al., J. Neurosci. 2011, 31, 15450-15454).

[4] = tested on: LPS-pretreated mice; test: animal or person
Experimental: Male ICR-CD1 mice (17-25 g; Harlan, Madison, Wis.), C3H mice (15-20 g, National Cancer Institute, Bethesda, Md.) or TLR4 knock-out mice (gift from Dr. Sabita Roy) were housed, 4 to a small box in a temperature- and humidity-controlled environment with unlimited access to food and water. They were maintained on a 12 h light/dark cycle. All experiments were approved by the Institutional Animal Care and Use Committee of the University of Minnesota (Minneapolis, Minn.).
The tail flick assay is used to test for antinociception described by D'Amour and Smith^64 and modified by Dewey et. al.^65 Mice are held gently in one hand with the tail positioned in the apparatus (Tail Flick Analgesia Meter, Columbus Instruments, Columbus, Ohio) for radiant heat stimulus. The tail-flick response is elicited by applying radiant heat to the dorsal side of the tail. The test latency is measured before drug treatment (control) and again after the drug treatment (test) at the peak time of the compound, a 10 s maximum cut-off time is used to prevent damage to the tail. Antinociception is quantified according to the method of Harris and Pierson^66 as the percent maximal possible effect (% MPE) which is calculated as: % MPE=(Test−Control/10−Control)×100
A minimum of three groups of eight to ten mice are used for each dose response curve, and each mouse is used only once.
The compounds were tested for acute tolerance by comparing the ED80-90 dose measured on day 1 to the same dose administered and retested 24 hours later on the same mouse.
Compounds were dissolved in 5% DMSO and diluted to less than 1% DMSO for injection. These compounds were administered in a volume of 5-μl either i.c.v (Haley and McCormick) or intrathecal (i.t.) as described for mice by Hylden and Wilcox^67 in conscious mice. […] Time course studies, including the times 5, 10, 20, 30 and 60 minutes were used to determine the peak antinociception.
Pain is a hallmark of many inflammatory conditions. […] Antinociception was evaluated using the radiant heat-induced tailflick assay. Morphine was employed as a standard opioid agonist under these conditions.

[5] = target: T1, CCR5 receptors expressed in HEK-293 cells (Homo sapiens, UniProt P51681); test: Intracellular calcium release, CCL5-stimulated CCR5 in HEK-293 cells; format: cell-based; conditions: CCR5 expressing HEK cells stimulated by CCL5
T1 construct: expressed in transfected cells; host or cells: HEK-293 cells, transient transfection with Lipofectamine 2000
T1 sequence (P51681 whole entry): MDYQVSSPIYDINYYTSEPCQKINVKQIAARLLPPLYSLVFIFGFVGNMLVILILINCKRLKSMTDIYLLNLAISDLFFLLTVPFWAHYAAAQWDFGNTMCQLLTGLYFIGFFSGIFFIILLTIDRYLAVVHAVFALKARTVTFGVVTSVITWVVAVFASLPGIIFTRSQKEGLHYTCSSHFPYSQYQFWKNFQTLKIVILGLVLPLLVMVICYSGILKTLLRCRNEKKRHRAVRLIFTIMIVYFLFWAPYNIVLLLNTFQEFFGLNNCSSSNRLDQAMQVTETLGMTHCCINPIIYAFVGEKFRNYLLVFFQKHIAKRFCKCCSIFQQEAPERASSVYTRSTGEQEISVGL
Experimental: Briefly, HEK-293 cells were cultured at 37° C. in Dulbelcco's modified Eagle's medium supplemented with 10% fetal bovine serum and 1% Penicillin/Streptomycin. Then 100 mm^2 were transiently transfected with CCR5 receptor cDNA using OptiMEM-1 medium (Invitrogen) and Lipofectamine 2000 (Invitrogen, Carlsbad, Calif.) reagent according to manufacturer's protocol (1:2 wt/vol ratio for DNA:Lipofectamine; 16 μg DNA: 32 μl Lipofectamine). The cells were seeded into 96 well plates (half-area; Corning) at 20,000 cells/well after 24 hours and assayed 48 hours after transfection using the FLIPR calcium kit (Molecular Devices) in a Flexstation-III apparatus (Molecular Devices). Cells were incubated with the calcium dye for 45 minutes at 37° C. before the antagonists were added to each well at the concentration listed, and incubated at 37° C. for 15 minutes. The control agonist, CCL5 (RANTES), was added at a concentration that elicited an 80% maximal response in untreated cells (100 nM) to each well and the calcium response measured with and without antagonists for 90 seconds. The change in RFU was calculated by subtracting the minimum relative fluorescent unit (RFU) from the maximum RFU response, replicated 6 times and averaged. Each experiment was repeated at least 3 times and the mean±SEM was plotted for each treatment group. Plates were 80-90% confluent, cells

Structure (SMILES)	ED50 (95% CI) i.p. ([1]; i.p.) [pmol/mouse]	tolerance ([1]; i.p.)	tolerance ([1]; i.p., listed as morphine)	ED50 (95% CI) i.t. ([1]; i.t.) [pmol/mouse]	tolerance ([1]; i.t.)	CONTROLS i.c.v./i.t. ratio [2]	CONTROLS ED50 (CI) i.c.v. ([2]; i.c.v., tail flick) [pmol/mouse]	CONTROLS ED50 (CI) i.t. ([2]; i.t., tail flick) [pmol/mouse]	ED50 values (95% CI) CFA (mechanical) [3] [pmol/mouse]	LPS pretreated i.c.v./i.t. ratio ([4]; LPS 1 mg/kg 24 hours i.p.)	LPS pretreated ED50 (CI) i.c.v. ([4]; LPS 1 mg/kg 24 hours i.p., i.c.v., tail flick) [pmol/mouse]	LPS pretreated ED50 (CI) i.t. ([4]; LPS 1 mg/kg 24 hours i.p., i.t., tail flick) [pmol/mouse]	ED50 values (95% CI) LPS (thermal) ([4]; i.t., LPS thermal hyperalgesia model) [pmol/mouse]	tolerance upon repeated administration ([4]; i.t., LPS-pretreated mice)	inhibiting calcium release (compared with TAK-220) [5]
CN1CC[C@]23c4c5ccc(O)c4O[C@H]2[C@@H](O)C=C[C@H]3[C@H]1C5 [Morphine, morphine, reference compound]	14.28	significant tolerance	exhibits 24 h tolerance	27.44	significant tolerance	11.1	301	27.0	15	8.60	301	35.0	35	exhibited tolerance	
CNC(=O)COCC(=O)N1CCC(CC(=O)N(CCCN2CCC(Cc3ccc(C(N)=O)cc3)CC2)c2ccc(C)c(Cl)c2)CC1 [Compound 8c, N-(3-(4-(4-carbamoylbenzyl)piperidin-1-yl)propyl)-N-(3-chloro-4-methylphenyl)-1-(2-(2-(methylamino)-2-oxoethoxy)acetyl)piperidine-4-carboxyamide]															equally potent
